The numbers were not newly measured in US20090298708A1, “2'-DEOXY-2'-FLUORO-BETA-D-ARABINONUCLEOSIDE 5'-TRIPHOSPHATES AND THEIR USE IN ENZYMATIC NUCLEIC ACID SYNTHESIS” (priority 2006, published 2009), which cites them from elsewhere.

Molecules are shown by their SMILES.

The data set has as its target T1, DNA pol-γ (Homo sapiens, UniProt P54098).
T1 sequence (P54098 1-1239): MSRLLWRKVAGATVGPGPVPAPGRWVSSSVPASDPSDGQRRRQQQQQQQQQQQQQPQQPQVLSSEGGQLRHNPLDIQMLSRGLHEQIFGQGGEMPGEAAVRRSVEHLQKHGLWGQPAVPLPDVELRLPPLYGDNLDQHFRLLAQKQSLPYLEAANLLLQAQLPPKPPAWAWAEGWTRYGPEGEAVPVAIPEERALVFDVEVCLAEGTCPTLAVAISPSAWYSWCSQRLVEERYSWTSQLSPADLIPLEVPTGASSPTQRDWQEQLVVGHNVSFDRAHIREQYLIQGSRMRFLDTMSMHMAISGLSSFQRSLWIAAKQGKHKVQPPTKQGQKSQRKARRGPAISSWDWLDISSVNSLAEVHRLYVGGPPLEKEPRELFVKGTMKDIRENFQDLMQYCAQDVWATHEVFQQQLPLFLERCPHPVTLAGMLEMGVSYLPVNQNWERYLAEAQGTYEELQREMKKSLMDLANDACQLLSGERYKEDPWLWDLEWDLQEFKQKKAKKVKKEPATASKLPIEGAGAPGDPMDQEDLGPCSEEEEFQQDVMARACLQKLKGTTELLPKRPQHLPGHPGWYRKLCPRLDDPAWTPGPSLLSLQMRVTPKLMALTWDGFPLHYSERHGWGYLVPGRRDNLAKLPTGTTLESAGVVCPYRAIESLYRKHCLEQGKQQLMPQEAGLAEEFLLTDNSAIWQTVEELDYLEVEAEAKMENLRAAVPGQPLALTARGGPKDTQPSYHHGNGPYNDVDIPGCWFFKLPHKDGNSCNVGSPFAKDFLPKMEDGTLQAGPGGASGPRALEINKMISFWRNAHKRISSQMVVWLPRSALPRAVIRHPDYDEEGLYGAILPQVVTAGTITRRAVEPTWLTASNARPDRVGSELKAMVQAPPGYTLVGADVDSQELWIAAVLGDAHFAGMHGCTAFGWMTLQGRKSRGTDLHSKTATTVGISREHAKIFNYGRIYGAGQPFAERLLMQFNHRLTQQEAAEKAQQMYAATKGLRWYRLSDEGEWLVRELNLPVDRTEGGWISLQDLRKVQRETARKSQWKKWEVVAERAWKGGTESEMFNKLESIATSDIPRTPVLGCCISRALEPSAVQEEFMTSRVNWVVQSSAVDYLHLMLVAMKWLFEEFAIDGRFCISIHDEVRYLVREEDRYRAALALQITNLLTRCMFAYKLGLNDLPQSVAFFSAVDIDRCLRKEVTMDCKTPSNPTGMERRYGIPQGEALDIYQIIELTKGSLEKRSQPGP
As to conditions: Lewis W. et al. (1994) Biochemistry, 33, 14620-14624; read-out: inhibition constant (Ki) with DNA pol-γ; cited from earlier work.

What is called Ki is a measure of affinity in units of concentration, obtained from inhibition or displacement. With `O=c1[nH]c(=O)n(C2OC(COP(=O)(O)OP(=O)(O)OP(=O)(O)O)C(O)C2F)cc1I` (stereo not shown) [FIAU 5′-TP], the Ki is 40 nM.
